# Values quoted from earlier work as cited in patent US20080317886A1, “Compositions for Preventing and Reducing Delayed Onset Muscle Soreness” (priority 2005, published 2008).
# Key:
# [1] = "in as little as"
# [2] = system: muscle catabolism (3-methylhistidine); conditions: intense resistance-weight training
# muscle damage (CPK, LDH) = conditions: 3 g HMB per day, six weeks of training, 20 km run; compared to placebo
# [3] = system: delayed onset muscle soreness; conditions: six days supplementation with 40 mg/kg HMB, single bout of exercise
# [4] = system: muscle damage (blood CPK); conditions: men and women, 4-week weight training program
# [5] = HMB with 75 g glucose in water compared with HMB with water
# [6] = system: perceived muscle soreness; conditions: downhill running protocol
substance,measurement,setting,value
beta-hydroxy-beta-methylbutyrate [HMB],time to increase of plasma levels,[1],30 min
same,plasma 3-MH,[2],significant decrease
same,blood levels of CPK after the run,"muscle damage (CPK, LDH)",reduced levels
same,blood levels of LDH after the run,"muscle damage (CPK, LDH)",reduced levels
same,DOMS,[3],did not reduce
same,decrease in blood CPK levels,[4],2%
same,HMB excreted in the urine,[5],less
same,plasma HMB levels,[5],lower
same,perceived muscle soreness,[6],reduced
same,strength loss,[6],less strength loss
